Experiments:
Test in all cases: Effect on weeds by the post-emergence technique
Format in all cases: in vivo
Details in all cases: rated visually after approx. 3-4 weeks
[1] = test system: Stellaria media (starwort)
Description: (§1) The damage caused to weed plants or the toleration by crop plants was rated by means of a code in which the activity is expressed by valuation numbers from 0 to 5. These have the following meanings:
(§2) Seeds or pieces of rhizome of monocotyledonous and dicotyledonous weeds were laid out in sandy loam soil in plastic pots (.phi.=9 l cm), covered with soil and cultivated in a greenhouse under good conditions for growth. The test plants were treated in the three leaf stage three weeks after sowing.
(§3) The compounds according to the invention, formulated as wettable powders, as emulsion concentrates or as aqueous solutions, were sprayed onto the green parts of the plants at various dosages and at a water application rate equivalent to 600 l/hectare, and the effect of the preparations was rated visually in comparison with untreated controls after the test plants had stood for approx. 3-4 weeks in a greenhouse under optimum conditions for growth (temperature 23 plus/minus 1° C.; relative humidity 60-80%). The agents according to the invention display a good herbicidal activity in the post-emergence technique against a broad spectrum of grass-like weeds and weeds of economic importance.

[2] = test system: Avena fatua (wild oats)
Description: as §1, §2, §3

[3] = test system: Setaria lutescens foxtail
Description: as §1, §2, §3

[4] = test system: Chrysanthemum segetum corn marigold
Description: as §1, §2, §3

[5] = test system: Sinapis alba (white mustard)
Description: as §1, §2, §3

[6] = test system: Echinochloa crusgalli barnyardgrass
Description: as §1, §2, §3

Structure (SMILES)	Herbicidal effect STM ([1]; 0.6 kg of a.i./hectare)	Herbicidal effect STM ([1]; 2.4 kg of a.i./hectare)	Herbicidal effect AVF ([2]; 0.6 kg of a.i./hectare)	Herbicidal effect AVF ([2]; 2.4 kg of a.i./hectare)	Herbicidal effect SAL ([3]; 0.6 kg of a.i./hectare)	Herbicidal effect SAL ([3]; 2.4 kg of a.i./hectare)	Herbicidal effect CRS ([4]; 0.6 kg of a.i./hectare)	Herbicidal effect CRS ([4]; 2.4 kg of a.i./hectare)	Herbicidal effect SIA ([5]; 0.6 kg of a.i./hectare)	Herbicidal effect SIA ([5]; 2.4 kg of a.i./hectare)	Herbicidal effect ECG ([6]; 0.6 kg of a.i./hectare)	Herbicidal effect ECG ([6]; 2.4 kg of a.i./hectare)
CC(C)C(N)C(=O)NC(CCP(C)(=O)O)C(=O)O (racemic) [Example 1, N-Dl-valyl-DL-phosphinothricin]	4 (4=60-80% effect or damage)	5 (5=80-100% effect or damage)	4 (4=60-80% effect or damage)	5 (5=80-100% effect or damage)	4 (4=60-80% effect or damage)	5 (5=80-100% effect or damage)	5 (5=80-100% effect or damage)	5 (5=80-100% effect or damage)	5 (5=80-100% effect or damage)	5 (5=80-100% effect or damage)	5 (5=80-100% effect or damage)	5 (5=80-100% effect or damage)
CP(=O)(O)CCC(NC(=O)C(N)c1ccccc1)C(=O)O (centres unmarked) [Example 34]	4 (4=60-80% effect or damage)	5 (5=80-100% effect or damage)	3 (3=40-60% effect or damage)	4 (4=60-80% effect or damage)	4 (4=60-80% effect or damage)	5 (5=80-100% effect or damage)	5 (5=80-100% effect or damage)	5 (5=80-100% effect or damage)	5 (5=80-100% effect or damage)	5 (5=80-100% effect or damage)	5 (5=80-100% effect or damage)	5 (5=80-100% effect or damage)
CP(=O)(O)CCC(NC(=O)[C@@H](N)CCCCN)C(=O)O (some centres unmarked) [Example 72]		5 (5=80-100% effect or damage)						5 (5=80-100% effect or damage)		5 (5=80-100% effect or damage)		5 (5=80-100% effect or damage)
CP(=O)(O)CCC(NC(=O)[C@@H](N)Cc1ccccc1)C(=O)O (mixture of isomers) [Example 2, N-L-phenylalanyl-DL-phosphinothricin]	4 (4=60-80% effect or damage)	5 (5=80-100% effect or damage)	5 (5=80-100% effect or damage)	5 (5=80-100% effect or damage)	5 (5=80-100% effect or damage)	5 (5=80-100% effect or damage)	5 (5=80-100% effect or damage)	5 (5=80-100% effect or damage)	5 (5=80-100% effect or damage)	5 (5=80-100% effect or damage)	5 (5=80-100% effect or damage)	5 (5=80-100% effect or damage)
CC(C)C[C@H](N)C(=O)NC(CCP(C)(=O)O)C(=O)O (some centres unmarked) [Example 24]		5 (5=80-100% effect or damage)						5 (5=80-100% effect or damage)		5 (5=80-100% effect or damage)		5 (5=80-100% effect or damage)

Reference: patent publication US4734120A, “Dipeptides containing C-terminal phosphinothricin, a process for their preparation and their use for controlling undesirable plant growth” (Hoechst Aktiengesellschaft, priority 1985, dated 1988)
